Reference: patent US9283257B2, “Compositions comprising solanum tuberosum for lowering cytosolic NADH level to mimic calorie restriction” (Nox Technologies, Inc., priority 2009, dated 2016)
Read-outs that look alike come from different tables or passages of the source.

System: NADH levels in yeast
Assay: yeast NADH autofluorescence assay
Assay type: cell-based, Saccharomyces cerevisiae
Source text: Reduced forms of NAD(P)H show fluorescence with peaks of excitation and emission in the regions of 340 and 450 nm, respectively, that are used to monitor changes in cytosolic NAD(P)H levels. Because oxidized forms of these pyridine nucleotides have minimal fluorescence at this wavelength, a specific strain of Saccharomyces cerevisiae is used as the primary indicator and the assay is set up in a […] microtiter plate format. Fluorescence measurements are taken with an automated plate reader after 2 h of incubation in the presence of at least three log dilutions of the candidate calorie restriction mimic under investigation.
A 10 mL culture of S. cerevisiae (wild type-BY4741, available from American Type Culture Collection, Manassas, Va., ATCC Number 201388) Genotype/ORF/Gene MATa his3delta1 leu2delta0 met15delta0 ura3delta0. The yeast cells are grown overnight in Yeast Extract Peptone Dextrose (YEPD) liquid medium at 30 C with shaking. OD600 of the culture should be between 0.800 and 1.000 prior to assay usage. To remove unwanted autofluorescence, the medium components are removed by the following process.
Aliquots of the yeast culture are transferred to individual 1 mL micro-centrifuge tubes, and the yeast are pelleted in a bench-top centrifuge by spinning at 1000 RPM for 10 min. Excessive centrifugation speeds (over 1000 rpm) are not used because they could damage the yeast; and live yeast are required for the assay. The medium is decanted, and the yeast are resuspended in an equal volume of 1× phosphate buffered saline (137 mM NaCl, 2.7 mM KCl, 10 mM Na2HPO4, 1.76 mM KH2PO4, pH 7.4) and 7.5 mM glucose (PBSG). […] This preparation of yeast is used in the subsequent auto-fluorescence measurements at an optical density (bulk turbidity) at 600 nm between 0.8 and 1.0.
For fluorescence reading samples are added to a black 96 well cell culture plate. […] A single well of each compound or preparation 5 μL+100 μL of 1×PBSG should be added to account for the fluorescence due to additive.
Experiments are conducted using a Fluoroskan II (Titer-Tek) fluorescent plate reader, which is controlled by Genesis software v 2.0 and used in accordance with the manufacturer' instructions. […] These parameters include a) type—whether the measurement is a single measurement or series of measurement over a given time (kinetic), b) excitation and emission wavelengths (for NADH autofluorescence the excitation wavelength is 340 nm and the emission wavelength is 450 nm.) c) interval at which measurements should be taken (every 20 seconds is sufficient) d) duration of each reading which is set at 5 sec per well, and e) the duration of the measurement which is set to 1 hr. […]

Compound: O=CC[C@@H](O)[C@H](O)[C@H](O)CO [2-Deoxyglucose, 2-deoxy-D-glucose]
- EC50 (Saccharomyces cerevisiae; read-out: Concentration of known stimulators of NADH oxidation to increase NADH consumption by 50% in the yeast system): 2000 µM
- cytosolic NADH levels (glucose of the yeast culture medium replaced with 2DG): reduced

Compound: O=C(O)CC(=O)C(=O)O [Oxaloacetic acid]
- EC50 (Saccharomyces cerevisiae, read-out: Concentration of known stimulators of NADH oxidation to increase NADH consumption by 50% in the yeast system): 20 µM

Compound: CC1(C)CCC2=C(O1)c1ccccc1C(=O)C2=O [β-Lapachrone]
- EC50 (yeast system; read-out: Concentration of known stimulators of NADH oxidation to increase NADH consumption by 50% in the yeast system): 40 µM
